This is an account of results in ChEMBL document CHEMBL1201862, “PubChem BioAssay data set” (2004).

The structures appear in SMILES notation.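 Assay format: 96-well plates, 48-hour exposure. Abbreviation: GI50, concentration required for 50% inhibition of growth.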 Activity calls are given as the source filed them. No stated cut-off is given here; in the data, active = GI50 up to about 1.1 µM and inactive = higher.

Among the test systems are HCT-15; HOP-62; HOP-92; IGROV-1; KM12; LOX IMVI; M19-MEL; OVCAR-5; RXF 393; SF-295; SF-539; SK-MEL-28; SK-OV-3; SN12C; SNB-75; SNB-78; UO-31; Hs-578T; MDA-MB-435; T47D.
Common to all, as to assay: NCI-60 cell line screen, 48 h

In the case of `CC(=O)c1ccc(NC(=O)/C(=N\NC(N)=O)C(C#N)CC(C)(C)C=O)cc1` (centres undefined), the GI50 with HCT-15 is greater than 100 µM; with HOP-62 it was > 100 µM (inactive); with HOP-92 it was > 100 µM (inactive); with IGROV-1, > 100 µM (inactive); in the assay with KM12, > 100 µM (inactive); with LOX IMVI, > 100 µM (inactive). Moreover, the GI50 in the assay on M19-MEL, with OVCAR-5, in the assay with RXF 393, in the assay on SF-295, with SF-539 and with SK-MEL-28 was > 100 µM (inactive) throughout. For the same compound, the GI50 in the assay with SK-OV-3, with SN12C, in the assay with SNB-75, in the assay on SNB-78 and with UO-31 was > 100 µM (inactive) throughout.

For `COC(=O)C(C/C=C(\C)c1ccccc1)C(C)=O` (centres undefined), the GI50 is 66.1 µM in the assay on HCT-15; > 100 µM (inactive) in the assay with HOP-62; 17.1 µM (inactive) in the assay with HOP-92; > 100 µM (inactive) in the assay on IGROV-1; 58.2 µM (inactive) with KM12; 68.2 µM (inactive) with LOX IMVI. For the same compound, the GI50 in the assay on M19-MEL is 59.8 µM (inactive); in the assay with OVCAR-5, > 100 µM (inactive); in the assay on RXF 393, > 100 µM (inactive); in the assay on SF-295 it was 18.4 µM (inactive); in the assay with SF-539, > 100 µM (inactive); in the assay with SK-MEL-28, > 100 µM (inactive). For the same compound, the GI50 with SK-OV-3 was > 100 µM (inactive); in the assay on SN12C, > 100 µM (inactive); in the assay on SNB-75, 47.3 µM (inactive); with SNB-78, > 68.5 µM (inactive); with UO-31, 33.2 µM (inactive).

For `Cc1ccc(NC(=O)C2C(=O)N(c3ccc(C)c(C)c3)C(=O)/C2=N\NC(N)=O)cc1C` (centres undefined), the GI50 in the assay with HCT-15 was 79.4 µM; with HOP-62, > 100 µM (inactive); in the assay on HOP-92, 63.5 µM (inactive); in the assay on IGROV-1 it was 89.5 µM (inactive); in the assay on KM12, > 100 µM (inactive); in the assay on LOX IMVI, > 100 µM (inactive). Also, the GI50 with M19-MEL is > 100 µM (inactive); in the assay with OVCAR-5, > 100 µM (inactive); in the assay with RXF 393, > 100 µM (inactive); in the assay on SF-295 it was 86.9 µM (inactive); in the assay with SF-539, > 100 µM (inactive); with SK-MEL-28, > 100 µM (inactive). The GI50 in the assay on SK-OV-3 is > 100 µM (inactive); in the assay on SN12C, 77.3 µM (inactive); with SNB-75, > 100 µM (inactive); in the assay with SNB-78, > 100 µM (inactive); in the assay with UO-31 it was 57.4 µM (inactive).

Consider `Nc1ccc(-c2nc3ccccc3s2)cc1`, for which the GI50 was 19.5 µM with HCT-15; 36.9 µM (inactive) in the assay on HOP-62; 11.4 µM (inactive) with HOP-92; 36.1 µM (inactive) in the assay on Hs-578T; 18.5 µM (inactive) with IGROV-1; 21.4 µM (inactive) with KM12. The GI50 in the assay with LOX IMVI was 16.8 µM (inactive); in the assay with M19-MEL it was 30.8 µM (inactive); in the assay with MDA-MB-435, 17.9 µM (inactive); with OVCAR-5, 18.7 µM (inactive); in the assay on RXF 393, 17.8 µM (inactive); with SF-295, 29.9 µM (inactive). Moreover, the GI50 was 23 µM (inactive) in the assay on SF-539; 17.1 µM (inactive) with SK-MEL-28; 45.5 µM (inactive) in the assay on SK-OV-3; 19.1 µM (inactive) with SN12C; 23.8 µM (inactive) in the assay with SNB-75; 21.6 µM (inactive) in the assay on SNB-78. The GI50 with T47D is 20.7 µM (inactive); in the assay with UO-31 it was 12.6 µM (inactive).

As to `CC(=O)Nc1ccc(/C=C(\NC(=O)c2ccccc2)C(=O)NNS(=O)(=O)c2ccc(C)cc2)cc1`, the GI50 was 18.4 µM with HCT-15; > 100 µM (inactive) in the assay with HOP-62; > 100 µM (inactive) in the assay with HOP-92; > 100 µM (inactive) in the assay with IGROV-1; > 100 µM (inactive) in the assay with KM12; 16.4 µM (inactive) with LOX IMVI. Moreover, the GI50 in the assay with M19-MEL, with OVCAR-5, with RXF 393, in the assay on SF-295, with SF-539 and with SK-MEL-28 was > 100 µM (inactive) throughout. Also, the GI50 with SK-OV-3, in the assay with SN12C, with SNB-75, with SNB-78 and in the assay on UO-31 was > 100 µM (inactive) in each case.

`NS(=O)(=O)c1ccc(NC(=O)C2C(=O)C(=O)N(c3ccc(S(N)(=O)=O)cc3)C2=O)cc1` (centres undefined): the GI50 in the assay on HCT-15 is greater than 100 µM; in the assay on HOP-62, > 100 µM (inactive); in the assay with HOP-92, > 100 µM (inactive); in the assay with IGROV-1, > 100 µM (inactive); in the assay on LOX IMVI it was > 100 µM (inactive); in the assay with M19-MEL, > 100 µM (inactive). For the same compound, the GI50 with OVCAR-5, in the assay with RXF 393, in the assay on SF-295, in the assay with SF-539, with SK-MEL-28 and in the assay on SK-OV-3 was > 100 µM (inactive) throughout. Besides, the GI50 with SN12C, in the assay with SNB-75, in the assay on SNB-78 and in the assay on UO-31 was > 100 µM (inactive) in each case.

For `Cc1nc(O)nc2c1C(NCCCN(C)C)c1cc(Cl)ccc1N2` (centres undefined), the GI50 with HOP-62 was 14.6 µM (inactive); in the assay on HOP-92 it was 10.9 µM (inactive); with IGROV-1 it was 16.2 µM (inactive); with KM12, 16 µM (inactive); in the assay on LOX IMVI, 11.9 µM (inactive); in the assay with M19-MEL it was 3.91 µM (inactive). The GI50 in the assay with RXF 393 was 13.6 µM (inactive); in the assay on SF-295, 16.6 µM (inactive); with SF-539, 13.5 µM (inactive); in the assay on SK-MEL-28, 14 µM (inactive); in the assay on SK-OV-3, 16.9 µM (inactive); in the assay with SN12C, 14.8 µM (inactive). Besides, the GI50 in the assay on SNB-75 is 12.8 µM (inactive); with SNB-78 it was 15.3 µM (inactive); in the assay on UO-31, 13.6 µM (inactive).

Regarding `COC1=C2CC(C)CC(OC)C(O)C(C)/C=C(\C)C(OC(N)=O)C(OC)/C=C\C=C(/C)C(=O)NC(=C(/C=N/N3CCCCC3)C1=O)C2=O` (centres undefined), the GI50 was 12.2 µM with HCT-15; 18.3 µM (inactive) in the assay with HOP-62; 15.7 µM (inactive) with HOP-92; 5.5 µM (inactive) in the assay on IGROV-1; 11.6 µM (inactive) in the assay on KM12; 8.55 µM (inactive) in the assay on LOX IMVI. Further, the GI50 in the assay with M19-MEL was 7 µM (inactive); with OVCAR-5, 19.4 µM (inactive); in the assay on RXF 393 it was 5.73 µM (inactive); in the assay on SF-295, 13.5 µM (inactive); in the assay on SF-539, 7.33 µM (inactive); in the assay with SK-MEL-28 it was 18.7 µM (inactive). For the same compound, the GI50 with SK-OV-3 is 21.9 µM (inactive); in the assay with SN12C it was 4.5 µM (inactive); with SNB-75, 17.8 µM (inactive); with SNB-78, 12.4 µM (inactive); in the assay with UO-31, 10.8 µM (inactive).

As for `CC(C)(C)c1nc2c(o1)/C(=N\c1ccc(F)cc1)c1ccccc1C2=O`, the GI50 is 5.19 µM with HCT-15; 15.9 µM (inactive) in the assay on HOP-62; > 72.3 µM (inactive) in the assay with HOP-92; 6.68 µM (inactive) in the assay with Hs-578T; 14.9 µM (inactive) in the assay with IGROV-1; 7.78 µM (inactive) with KM12. Also, the GI50 in the assay on LOX IMVI is 2.56 µM (inactive); with M19-MEL, 1.13 µM (inactive); in the assay on MDA-MB-435, 2.05 µM (inactive); in the assay with OVCAR-5, 14.6 µM (inactive); in the assay on RXF 393 it was 9.79 µM (inactive); with SF-295, 6.1 µM (inactive). For the same compound, the GI50 in the assay on SF-539 was 4.6 µM (inactive); with SK-MEL-28, 10.9 µM (inactive); in the assay with SK-OV-3, 22.1 µM (inactive); in the assay with SN12C it was 5.69 µM (inactive); in the assay on SNB-75, 6.79 µM (inactive); with SNB-78, 56 µM (inactive). The GI50 was > 49.3 µM (inactive) in the assay with T47D and 4.59 µM (inactive) in the assay with UO-31.

For the compound `O=C(Nc1cccc(O)c1)C(=O)C1C(=O)NC(=S)NC1=O`, the GI50 in the assay with HCT-15 was greater than 100 µM; in the assay on HOP-92, > 100 µM (inactive); in the assay with IGROV-1 it was > 100 µM (inactive); in the assay on LOX IMVI, > 100 µM (inactive); in the assay on M19-MEL, > 100 µM (inactive); in the assay on RXF 393, > 100 µM (inactive). Moreover, the GI50 in the assay on SF-295, in the assay with SF-539, with SK-MEL-28, in the assay with SK-OV-3, in the assay with SN12C and in the assay with SNB-75 was > 100 µM (inactive) each time. The GI50 with SNB-78 and in the assay on UO-31 was > 100 µM (inactive) in each case.

On to `O=c1c2cc([N+](=O)[O-])ccc2sc2ccsc12`, for which the GI50 in the assay on HCT-15 was greater than 100 µM; in the assay on HOP-62 it was > 100 µM (inactive); in the assay with HOP-92, > 100 µM (inactive); in the assay with IGROV-1 it was > 100 µM (inactive); in the assay on KM12 it was > 100 µM (inactive); in the assay on LOX IMVI it was > 100 µM (inactive). In addition, the GI50 in the assay on M19-MEL, in the assay on OVCAR-5, in the assay with RXF 393, in the assay on SF-295, in the assay on SF-539 and with SK-MEL-28 was > 100 µM (inactive) each time. Further, the GI50 in the assay with SK-OV-3, with SN12C, in the assay with SNB-75, with SNB-78 and with UO-31 was > 100 µM (inactive) each time.

Turning to `O=C(c1ccccc1O)c1cc(-c2ncc3c(=O)c4ccccc4oc3n2)c(-c2ccccc2O)[nH]c1=O`, the GI50 with HCT-15 is 24.9 µM; with HOP-62 it was 18.5 µM (inactive); in the assay on HOP-92, 23.4 µM (inactive); in the assay on IGROV-1, 26.9 µM (inactive); with KM12, 30 µM (inactive); in the assay on LOX IMVI, 18.6 µM (inactive). Further, the GI50 in the assay on M19-MEL was 25.5 µM (inactive); with OVCAR-5, 24 µM (inactive); in the assay on RXF 393, 23.4 µM (inactive); in the assay with SF-295 it was 11.4 µM (inactive); with SF-539, 1.47 µM (inactive); in the assay on SK-MEL-28 it was 23.6 µM (inactive). The GI50 was 25.9 µM (inactive) in the assay on SK-OV-3; 23.8 µM (inactive) in the assay on SN12C; 19.2 µM (inactive) in the assay on SNB-75; 34.2 µM (inactive) in the assay on SNB-78; 14.9 µM (inactive) in the assay with UO-31.
